Some test systems named below: HOP-18; LXFL 529; RXF 631; DLD-1; DMS-114; XF498; SNB-78; M19-MEL; KM-20L2.
What all share (test): NCI-60 cell line screen, 48 h

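Protocol summary: plate cells (96-well), add compound at 5 concentrations, incubate 48 h, interpolate endpoints linearly. The concentration for 50% growth inhibition is given as GI50.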 Calls of active or inactive are those of the source. Cut-off read from the data, not from the text of the source: active = GI50 up to about 1.1 µM and inactive = higher.

As to `Cc1[nH]c2ccccc2c1C1Cc2ccccc2N1C(=O)/C(Cl)=C/c1ccccc1` (stereo not drawn), the GI50 was 66.2 µM (inactive) in the assay with HOP-18; > 100 µM (inactive) in the assay on LXFL 529; > 100 µM (inactive) with RXF 631; 74.3 µM (inactive) in the assay with DLD-1; > 20.9 µM (inactive) in the assay with DMS-114; 12.4 µM (inactive) in the assay on XF498. Moreover, the GI50 with SNB-78 is 23.3 µM (inactive); in the assay on M19-MEL it was > 100 µM (inactive); in the assay on KM-20L2 it was > 100 µM (inactive).
As to `C[C@H](N)C(=O)N[C@@H]1[C@H]2C(=C(O)C[C@@H](O)[C@@H]2O)C(=O)O[C@]1(C)C(Cl)Cl` [BACTOBOLIN], the GI50 with HOP-18 was 0.57 µM (active); with LXFL 529, 0.108 µM (active); in the assay with RXF 631 it was 0.289 µM (active); with DLD-1, 0.24 µM (active); in the assay on DMS-114, 0.178 µM (active); in the assay on XF498, 0.0938 µM (active). Moreover, the results for the GI50 in the assay with SNB-78, in the assay with M19-MEL and with KM-20L2 were 0.281 µM (active), 0.232 µM (active) and 0.262 µM (active), respectively.

(Values after ChEMBL document CHEMBL1201862, “PubChem BioAssay data set” (2004).)
